# Experimental data taken from ChEMBL document CHEMBL5344422, “Syrosingopine Enhances 20S Proteasome Activity and Degradation of α-Synuclein” (J Nat Prod, 2024).
# Active and inactive are the calls of the source. The rule behind the calls is not given here. Peptide text beside a SMILES is read from it. * marks the point of attachment. Cbz = O=C(OCc1ccccc1)*
# Legend:
# [1] = molecular target: T1, 20S proteasome (Homo sapiens) (UniProt P49721+P20618+P28074+P28062+P28065+P28072+P25786+P25787+P25788+P25789+P28066+P60900+O14818+Q8TAA3+P40306+A5LHX3+P49720+P28070+Q99436); assay: Activation of human 20S proteasome chymotrypsin-like hydrolysis activity assessed as measuring fold increase in protein activity using SucLLVY-MCA as a fluorogenic substrate at 10 uM incubated for 20 mins by fluorescence based assay relative to DMSO; type: protein-complex assay; settings: filed as activator
# [2] = molecular target: T1, 20S proteasome (Homo sapiens); assay: Activation of human 20S proteasome chymotrypsin-like hydrolysis activity assessed as measuring fold increase in protein activity using SucLLVY-MCA as a fluorogenic substrate at 20 uM incubated for 1 hrs by fluorescence based assay relative to DMSO; type: protein-complex assay
# [3] = molecular target: T1, 20S proteasome (Homo sapiens); assay: Activation of 20S proteasome in human HeLa cells assessed as gate opening by measuring increase in membrane-permeable fluorescent probe signal pretreated for 20 hrs followed by treated with Me4BodipyFL-Ahx3Lue3VS probe for 2 hrs by flow cytometry relative to DMSO; type: cell-based; settings: filed as activator, time 22.0 hrs
# [4] = molecular target: T1, 20S proteasome (Homo sapiens); assay: Activation of human 20S proteasome chymotrypsin-like hydrolysis activity assessed as concentration to doubling the protein activity using SucLLVY-MCA as a fluorogenic substrate measured after 1 hr by fluorescence based assay; type: protein-complex assay; settings: filed as activator
# [5] = molecular target: T1, 20S proteasome (Homo sapiens); assay: Activation of human 20S proteasome caspase-like hydrolysis activity assessed as concentration to doubling the protein activity using […] as a fluorogenic substrate measured after 1 hr by fluorescence based assay; type: protein-complex assay; settings: filed as activator
# [6] = molecular target: 26S proteasome (Homo sapiens) (UniProt Q99460+P49721+P20618+P28074+P28062+P28065+P28072+O00487+P25786+P25787+P25788+P25789+P28066+P60900+O14818+Q8TAA3+P40306+A5LHX3+P49720+P28070+Q99436+Q16186+P35998+P62191+P43686+P62333+P17980+P62195+Q13200+O43242+O00232+O00231+Q15008+P51665+Q9UNM6+P55036+P48556+P60896); assay: Activation of human 26S proteasome mediated proteolytic hydrolysis activity using SucLLVY-AMC as a flurogenic substrate measured every minute for 1 hrs by fluorescence based assay; type: protein-complex assay
# [7] = molecular target: T1, 20S proteasome (Homo sapiens); assay: Activation of human 20S proteasome mediated chymotrypsin-like proteolytic activity assessed as maximal fold increase in protein activity using SucLLVY-MCA as a fluorogenic substrate incubated for 1 hr by fluorescence based assay; type: protein-complex assay; settings: filed as activator
# [8] = molecular target: T1, 20S proteasome (Homo sapiens); assay: Activation of human 20S proteasome mediated caspase-like proteolytic activity assessed as maximal fold increase in protein activity using […] as a fluorogenic substrate incubated for 1 hr by fluorescence based assay; type: protein-complex assay; settings: filed as activator
# [9] = molecular target: T1, 20S proteasome (Homo sapiens); assay: Activation of human 20S proteasome mediated trypsin-like proteolytic activity assessed as maximal fold increase in protein activity using […] as a fluorogenic substrate incubated for 1 hr by fluorescence based assay; type: protein-complex assay; settings: filed as activator
# [10] = molecular target: T1, 20S proteasome (Homo sapiens); assay: Activation of human 20S proteasome assessed as alpha-synuclein degradation in presence of MG132 incubated for 20 mins by Western blot analysis; type: protein-complex assay
# [11] = molecular target: T1, 20S proteasome (Homo sapiens); assay: Activation of human 20S proteasome assessed as alpha-synuclein degradation incubated for 20 mins by Western blot analysis; type: protein-complex assay; settings: filed as activator
# [12] = molecular target: T1, 20S proteasome (Homo sapiens); assay: Activation of human 20S proteasome trypsin-like hydrolysis activity assessed as concentration to doubling the protein activity using […] as a fluorogenic substrate measured after 1 hr by fluorescence based assay; type: protein-complex assay; settings: filed as activator
# [13] = molecular target: T1, 20S proteasome (Homo sapiens); assay: Activation of human 20S proteasome chymotrypsin-like hydrolysis activity assessed as measuring fold increase in protein activity using SucLLVY-MCA as a fluorogenic substrate at 20 uM incubated for 20 mins by fluorescence based assay relative to DMSO; type: protein-complex assay; settings: filed as activator
Compound,fold change (FC) [1],fold change (FC) [2],fold change (FC) ([2]; filed as activator),other results
COC(=O)[C@H]1/C(=N/O)CC[C@H]2CN3CCc4c([nH]c5ccccc45)[C@@H]3C[C@@H]21,1.49,< 3,,
CC(C)C[C@@H](C=O)NC(=O)[C@H](CC(C)C)NC(=O)[C@H](CC(C)C)NC(=O)OCc1ccccc1 (Cbz-Leu-Leu-Leu-aldehyde),,,,Activity [3]: 0.11
C[C@H]1[C@H](C)CC[C@]2(C(=O)O)CC[C@]3(C)C(=CC[C@@H]4[C@@]5(C)CC[C@H](O)C(C)(C)[C@@H]5CC[C@]43C)[C@H]12,,,6.5,
CC(C)=CCC/C(C)=C/CC/C(C)=C/CC/C(C)=C/CC1=C(C)C(=O)c2ccccc2C1=O,,,4.5,
COC(=O)[C@H]1[C@H]2C[C@H]3c4[nH]c5ccccc5c4CCN3C[C@H]2CC[C@@H]1O,1.32,< 3,,
CC(C)[C@@]1(NC(=O)[C@@H]2C[C@@H]3c4cccc5[nH]cc(c45)C[C@H]3N(C)C2)O[C@@]2(O)[C@@H]3CCCN3C(=O)[C@H](Cc3ccccc3)N2C1=O,,,8,
COc1cc(/C=C/C(=O)CC(=O)/C=C/c2ccc(O)c(OC)c2)ccc1O,,,5.4,
CCOC(=O)Oc1c(OC)cc(C(=O)O[C@@H]2C[C@@H]3CN4CCc5c([nH]c6cc(OC)ccc56)[C@H]4C[C@@H]3[C@H](C(=O)OC)[C@H]2OC)cc1OC,12.5,,13,CD [4]: 1 µM; CD [5]: 0.38 µM; Activity [6]: inactive; fold change (FC) [7]: 9.8; fold change (FC) [8]: 9.4; fold change (FC) [9]: 8; Activity ([10]; filed as activator): Active; Activity [11]: Active; CD [12]: 0.96 µM; Activity [3]: 2.84
RAUWOLFIA SERPENTINA,1.05,< 3,,
COC(=O)[C@@H]1[C@H]2C[C@H]3c4[nH]c5ccccc5c4CCN3C[C@@H]2CC[C@@H]1O,0.82,< 3,,
COC(=O)[C@H]1[C@H]2C[C@H]3c4[nH]c5ccccc5c4CCN3C[C@@H]2CC[C@@H]1O,0.99,< 3,,
COC(=O)[C@H]1[C@H]2C[C@@H]3c4[nH]c5cc(OC)ccc5c4CCN3C[C@H]2C[C@@H](OC(=O)c2cc(OC)c(OC)c(OC)c2)[C@@H]1OC,7.91,,7.9,CD [4]: 1.6 µM; CD [5]: 0.53 µM; Activity [6]: inactive; fold change (FC) [7]: 4.8; fold change (FC) [8]: 7; fold change (FC) [9]: 7; Activity [10]: inactive; Activity [11]: Active; CD [12]: 1.3 µM
CN1C[C@H](C(=O)N[C@]2(C)O[C@@]3(O)[C@@H]4CCCN4C(=O)[C@H](Cc4ccccc4)N3C2=O)C=C2c3cccc4[nH]cc(c34)C[C@H]21,,,7.2,
COc1ccc2c3c([nH]c2c1)[C@H]1C[C@H]2[C@H](C[C@@H](O)[C@H](OC)[C@H]2C(=O)O)CN1CC3,2.73,< 3,,
CC(C)C[C@H]1C(=O)N2CCC[C@H]2[C@]2(O)O[C@](NC(=O)[C@@H]3C=C4c5cccc6[nH]c(Br)c(c56)C[C@H]4N(C)C3)(C(C)C)C(=O)N12,,,6.7,
Cc1cc2c(C(C)C)c(O)c(O)c(C=O)c2c(O)c1-c1c(C)cc2c(C(C)C)c(O)c(O)c(C=O)c2c1O,,,4,
CN(C)CCCN1c2ccccc2Sc2ccc(Cl)cc21,,,,Activity [3]: 1.29; fold change (FC) [13]: 4.09
CC(C)C[C@H]1C(=O)N2CCC[C@H]2[C@]2(O)O[C@](NC(=O)[C@@H]3C=C4c5cccc6[nH]cc(c56)C[C@H]4N(C)C3)(C(C)C)C(=O)N12,,,8.9,
Cc1cc2nc3c(=O)[nH]c(=O)nc-3n(C[C@H](O)[C@H](O)[C@H](O)CO)c2cc1C,,,4.5,
O=C(O)[C@@H]1[C@H]2C[C@H]3c4[nH]c5ccccc5c4CCN3C[C@@H]2CC[C@@H]1O,2.17,< 3,,
CC(C)[C@H]1C(=O)N2CCC[C@H]2[C@]2(O)O[C@](NC(=O)[C@@H]3C[C@@H]4c5cccc6[nH]cc(c56)C[C@H]4N(C)C3)(C(C)C)C(=O)N12,,,4.3,
